What all share (assay type): cell-based
One experiment addresses T1, hTP (Homo sapiens, UniProt P21731).
T1 construct: expressed in transfected cells
T1 sequence (P21731 1-343): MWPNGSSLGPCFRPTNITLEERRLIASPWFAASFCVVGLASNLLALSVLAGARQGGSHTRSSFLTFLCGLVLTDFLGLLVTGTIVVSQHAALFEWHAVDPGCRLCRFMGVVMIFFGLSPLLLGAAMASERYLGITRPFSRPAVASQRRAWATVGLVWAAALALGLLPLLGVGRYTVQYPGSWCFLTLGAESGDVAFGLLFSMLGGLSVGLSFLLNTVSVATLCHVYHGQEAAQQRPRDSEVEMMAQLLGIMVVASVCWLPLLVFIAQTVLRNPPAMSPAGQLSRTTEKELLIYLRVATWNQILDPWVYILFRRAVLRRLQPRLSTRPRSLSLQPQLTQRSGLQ
As to the kind of experiment: FLIPR calcium signal, TP. The conditions noted are these: HEK-293(EBNA). Here is the method:
(§1) HEK-293(EBNA) cells, stably expressing one type or subtype of recombinant human prostaglandin receptors (prostaglandin receptors expressed: hDP/Gqs5; hEP1; hEP2/Gqs5; hEP3A/Gqi5; hEP4/Gqs5; hFP; hIP; hTP), were cultured in 100 mm culture dishes in high-glucose DMEM medium containing 10% fetal bovine serum, 2 mM 1-glutamine, 250 μg/ml geneticin (G418) and 200 μg/ml hygromycin B as selection markers, and 100 units/ml penicillin G, 100 μg/ml streptomycin and 0.25 μg/ml amphotericin B.
(§2) Cells were seeded at a density of 5×10^4 cells per well in Biocoat® Poly-D-lysine-coated black-wall, clear-bottom 96-well plates (Becton-Dickinson) and allowed to attach overnight in an incubator at 37° C. Cells were then washed two times with HBSS-HEPES buffer (Hanks Balanced Salt Solution without bicarbonate and phenol red, 20 mM HEPES, pH 7.4) using a Denley Cellwash plate washer (Labsystems). After 45 minutes of dye-loading in the dark, using the calcium-sensitive dye Fluo-4 AM at a final concentration of 2 μM, plates were washed four times with HBSS-HEPES buffer to remove excess dye leaving 100 μl in each well. Plates were re-equilibrated to 37° C. for a few minutes.
(§3) Cells were excited with an Argon laser at 488 nm, and emission was measured through a 510-570 nm bandwidth emission filter (FLIPR™, Molecular Devices, Sunnyvale, Calif.). Drug solution was added in a 50 μl volume to each well to give the desired final concentration. The peak increase in fluorescence intensity was recorded for each well. On each plate, four wells each served as negative (HBSS-HEPES buffer) and positive controls (standard agonists: BW245C (hDP); PGE2 (HEP1; hEP2/Gqs5; hEP3A/Gqi5; hEP4/Gqs5); PGF2α (hFP); carbacyclin (hIP); U-46619 (hTP), depending on receptor). The peak fluorescence change in each drug-containing well was then expressed relative to the controls.
(§4) Compounds were tested in a high-throughput (HTS) or concentration-response (CoRe) format. In the HTS format, forty-four compounds per plate were examined in duplicates at a concentration of 10^−5 M. To generate concentration-response curves, four compounds per plate were tested in duplicates in a concentration range between 10^−5 and 10^−11 M. The duplicate values were averaged. In either, HTS or CoRe format each compound was tested on at least 3 separate plates using cells from different passages to give an n≧3.

The target of a further experiment is T2, hEP2/Gqs5 (Homo sapiens, UniProt P43116).
T2 construct: expressed in transfected cells
Briefly: FLIPR calcium signal, EP2. The note with it: HEK-293(EBNA), value outside parentheses, read-out: Ca2+ Signal-EC50 (nM) EP2. Here is the method:
as §1, §2, §3, §4

The target in the next experiment is T3, hDP/Gqs5 (Homo sapiens, UniProt Q13258).
T3 construct: expressed in transfected cells
T3 sequence (Q13258 1-359): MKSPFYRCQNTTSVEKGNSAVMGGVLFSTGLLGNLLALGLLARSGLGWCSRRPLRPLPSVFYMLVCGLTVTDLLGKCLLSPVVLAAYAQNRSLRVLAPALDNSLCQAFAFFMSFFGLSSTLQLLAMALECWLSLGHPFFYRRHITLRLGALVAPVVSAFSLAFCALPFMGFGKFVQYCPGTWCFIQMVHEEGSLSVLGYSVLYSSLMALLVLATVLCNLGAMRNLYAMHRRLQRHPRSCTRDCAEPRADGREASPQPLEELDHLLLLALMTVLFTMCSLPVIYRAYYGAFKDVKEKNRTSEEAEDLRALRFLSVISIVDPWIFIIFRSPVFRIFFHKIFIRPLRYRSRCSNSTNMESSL
As to the kind of experiment: FLIPR calcium signal, DP. The conditions noted are these: HEK-293(EBNA). Here is the method: as §1, §2, §3, §4

T2 sequence (P43116 whole entry): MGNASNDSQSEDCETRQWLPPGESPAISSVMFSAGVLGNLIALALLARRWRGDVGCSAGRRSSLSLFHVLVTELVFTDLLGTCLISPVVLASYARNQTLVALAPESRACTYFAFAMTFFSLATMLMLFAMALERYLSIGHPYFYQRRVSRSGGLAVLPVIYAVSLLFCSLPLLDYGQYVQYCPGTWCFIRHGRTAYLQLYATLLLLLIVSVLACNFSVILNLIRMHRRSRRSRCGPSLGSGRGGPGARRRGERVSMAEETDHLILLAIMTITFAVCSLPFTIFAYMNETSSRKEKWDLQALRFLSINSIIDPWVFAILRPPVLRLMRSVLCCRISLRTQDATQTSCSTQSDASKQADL

Consider `CCCCCC(O)c1ccc([C@@H]2[C@@H](C/C=C\CCCC(=O)O)[C@H](F)C[C@H]2O)cc1` (mixture of isomers) [Entry 8, (Z)-7-{(1R,2S,3R,5R)-5-Fluoro-3-hydroxy-2-[4-(1-hydroxy-hexyl)-phenyl]-cyclopentyl}-hept-5-enoic acid], for which the “Ca2+ Signal-EC50 (nM) TP” value on hTP is “not active”. Also, the EC50 (commonly the midpoint of the concentration-response curve) on hEP2/Gqs5 is 53 nM. The “Ca2+ Signal-EC50 (nM) DP” value at hDP/Gqs5 is “not active”.

Regarding `CCCCCC(O)c1ccc([C@@H]2[C@@H](C/C=C\CCCC(=O)O)[C@H](Cl)C[C@H]2O)cc1` (mixture of isomers) [Entry 11, (Z)-7-{(1R,2S,3R,5R)-5-Chloro-3-hydroxy-2-[4-(1-hydroxy-hexyl)-phenyl]-cyclopentyl}-hept-5-enoic acid], the “Ca2+ Signal-EC50 (nM) TP” value at hTP is recorded as “not active”. Also, the EC50 on hEP2/Gqs5 was 7 nM. The “Ca2+ Signal-EC50 (nM) DP” value on hDP/Gqs5 is listed as “not active”.

Consider `O=C(O)CCC/C=C\C[C@@H]1[C@@H](c2ccc(C(O)CC3CCCCC3)cc2)[C@H](O)C[C@H]1Cl` (mixture of isomers) [Entry 17, (Z)-7-{(1R,2S,3R,5R)-5-Chloro-2-[4-(2-cyclohexyl-1-hydroxy-ethyl)-phenyl]-3-hydroxy-cyclopentyl}-hept-5-enoic acid], for which, at hTP, the “Ca2+ Signal-EC50 (nM) TP” value was “not active”. Moreover, the EC50 on hEP2/Gqs5 is 953 nM. For the same compound, at hDP/Gqs5, the “Ca2+ Signal-EC50 (nM) DP” value is “not active”.

In the case of `CC(C)(C)CCCC(O)c1ccc([C@@H]2[C@@H](CCCCCCC(=O)O)[C@H](Cl)C[C@H]2O)cc1` (mixture of isomers) [Entry 20, 7-{(1R,2S,3R,5R)-5-Chloro-3-hydroxy-2-[4-(1-hydroxy-5,5-dimethyl-hexyl)-phenyl]-cyclopentyl}-heptanoic acid], the “Ca2+ Signal-EC50 (nM) TP” value at hTP is “not active”. Further, at hEP2/Gqs5, the EC50 is 5390 nM. Further, at hDP/Gqs5, the “Ca2+ Signal-EC50 (nM) DP” value is given as “not active”.

Take `O=C(O)CCC/C=C\C[C@@H]1[C@@H](c2ccc(C(O)Cc3ccccc3)cc2)[C@H](O)C[C@H]1Cl` (mixture of isomers) [Entry 21, (Z)-7-{(1R,2S,3R,5R)-5-Chloro-3-hydroxy-2-[4-(1-hydroxy-2-phenyl-ethyl)-phenyl]-cyclopentyl}-hept-5-enoic acid]: the “Ca2+ Signal-EC50 (nM) TP” value at hTP is listed as “not active”. Besides, at hEP2/Gqs5, the EC50 was found to be 9 nM. Besides, on hDP/Gqs5, the “Ca2+ Signal-EC50 (nM) DP” value is “not active”.

With `CCCCC(O)c1ccc([C@@H]2[C@@H](C/C=C\CCCC(=O)O)[C@H](Cl)C[C@H]2O)cc1` (mixture of isomers) [Entry 27, (Z)-7-{(1R,2S,3R,5R)-5-Chloro-3-hydroxy-2-[4-(1-hydroxy-pentyl)-phenyl]-cyclopentyl}-hept-5-enoic acid], at hTP, the “Ca2+ Signal-EC50 (nM) TP” value was “not active”. On hDP/Gqs5, the “Ca2+ Signal-EC50 (nM) DP” value is listed as “not active”.

In the case of `CCCCC(O)C(C)(C)c1ccc([C@@H]2[C@@H](C/C=C\CCCC(=O)O)[C@H](Cl)C[C@H]2O)cc1` (mixture of isomers) [Entry 32, (Z)-7-{(1R,2S,3R,5R)-5-Chloro-3-hydroxy-2-[4-(2-hydroxy-1,1-dimethyl-hexyl)-phenyl]-cyclopentyl}-hept-5-enoic acid], the “Ca2+ Signal-EC50 (nM) TP” value at hTP is recorded as “not active”. Further, the EC50 at hEP2/Gqs5 is 164 nM. The “Ca2+ Signal-EC50 (nM) DP” value on hDP/Gqs5 is on record as “not active”.

For the compound `CCCCCC(O)c1ccc([C@@H]2[C@@H](C/C=C\CCCC(=O)O)[C@H](Cl)C[C@H]2O)cc1` (single isomer, unassigned) [Entry 12], the “Ca2+ Signal-EC50 (nM) TP” value on hTP is given as “not active”. Moreover, on hEP2/Gqs5, the EC50 came out at 36 nM. Further, the “Ca2+ Signal-EC50 (nM) DP” value at hDP/Gqs5 was “not active”.

In the case of `O=C(O)CCC/C=C\C[C@@H]1[C@@H](c2ccc(C(O)c3ccccc3)cc2)[C@H](O)C[C@H]1Cl` (stereo partly drawn) [Entry 28, (Z)-7-{(1R,2S,3R,5R)-5-Chloro-3-hydroxy-2-[4-(hydroxy-phenyl-methyl)-phenyl]-cyclopentyl}-hept-5-enoic acid], the “Ca2+ Signal-EC50 (nM) TP” value at hTP was “not active”. For the same compound, the EC50 at hEP2/Gqs5 was determined as 142 nM.

The record behind these values is patent US7585895B2, “Therapeutic substituted cyclopentanes” (Allergan, Inc., priority 2005, dated 2009).
